Test results from PubChem BioAssay (NCI).
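A five-concentration, 48-hour dose response in 96-well plates underlies each endpoint, interpolated linearly between surrounding concentrations. The concentration for full growth arrest is given as TGI.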

Experiments:
Test in all cases: growth of human tumour cells (NCI), 48 h
[1] = tested on: UACC-257 melanoma
[2] = tested on: ACHN renal
[3] = tested on: A498 renal
[4] = tested on: UACC-62 melanoma
[5] = tested on: IGROV1 ovarian
[6] = tested on: HL-60(TB) leukemia
[7] = tested on: MOLT-4 leukemia
[8] = tested on: OVCAR-5 ovarian
[9] = tested on: DU-145 prostate
[10] = tested on: TK-10 renal
[11] = tested on: SR leukemia
[12] = tested on: NCI-H226 lung
[13] = tested on: SW-620 colon
[14] = tested on: COLO 205 colon
[15] = tested on: SF-539 CNS
[16] = tested on: SNB-19 CNS
[17] = tested on: SK-MEL-5 melanoma
[18] = tested on: HCT-15 colon
[19] = tested on: HOP-92 NSCLC

Compound	TGI [1] [µM]	TGI [2] [µM]	TGI [3] [µM]	TGI [4] [µM]	TGI [5] [µM]	TGI [6] [µM]	TGI [7] [µM]	TGI [8] [µM]	TGI [9] [µM]	TGI [10] [µM]	TGI [11] [µM]	TGI [12] [µM]	TGI [13] [µM]	TGI [14] [µM]	TGI [15] [µM]	TGI [16] [µM]	TGI [17] [µM]	TGI [18] [µM]	TGI [19] [µM]
Cc1c(CCN2CCOCC2)c(N2CCOCC2)n2c(nc3ccccc32)c1C#N	> 10	> 10	> 10	> 10	> 10	> 10	> 10	> 10	> 10	> 10	> 10	> 10	> 10	> 10	> 10	> 10	> 10	> 10	> 10
Clc1nssc1=Nc1nonc1-c1ccccc1	> 100	36.1	> 100	> 100	82	34.9	69.8	49.3	53.5		68.6	> 100	> 100	36.7	66.1	> 100	37	> 100	> 100
CCn1c(SCC(=O)N/N=C/c2ccccc2)nc2ccccc2c1=O	> 100	> 100	65	52.1	> 93.1	> 100	> 100	> 100	> 100	> 91	5.34	67.6	> 100	> 100	38.4	71.3	> 100	> 100	> 79
O=S(=O)(c1ccccc1)C(c1ccc2ccccc2n1)S(=O)(=O)c1ccccc1	> 100	> 100	> 100		> 100	> 100	> 100	> 100	> 100	> 100	> 100	> 100	> 100	> 100	> 100	> 100	> 100	> 100	> 100
Cc1cccc2c1C(=O)[C@](C)([C@]1(C)Nc3cccc(C)c3C1=O)N2	> 100	> 100	> 100	> 100	> 100	0.54	72.6	58	> 100		93.5	> 100	> 100	44.6	74.9	> 100	> 100	> 100	75.7
O=c1c2cc(-c3ccccc3)sc2nc2n1N=C(c1ccc(Cl)cc1)CS2	> 100	> 100	> 100	> 100	> 100	> 100	> 100	> 100	> 100	> 100	> 100	> 100	> 100	> 100	> 100		> 100	> 100	> 100
CCCC[C@H]1[C@@H](OCOc2ccccc2)COC(=O)N1[C@H](C)c1ccccc1	29.5	47.8	29.4	30.2	> 61.8	59.4	> 60.4	43.6	53.3	39	> 80.9	> 100	> 100	> 100		> 55	16.9	44.6	54
CC1=NN(c2cccc(Cl)c2)C2(SCC(=O)N2c2nc3ccccc3s2)/C1=C\c1ccc(N(C)C)cc1 (stereo not given)	> 100	84.1	87.9		> 100	> 100	> 100	> 100	> 100	> 100	> 100	> 100	> 100		> 100		> 100	> 100	79.9
COc1ccc(/C=C2\CN(C)C/C(=C\c3ccc(OC)cc3)C2=O)cc1		> 100	> 100	> 100	> 100	> 100	> 100	> 100	> 100	> 100	> 100	> 100	> 100	> 100	> 100	> 100	> 100	> 100	> 100
CCC(C(=O)C(=O)C(CC)P1(=O)OC(C)(C)CN1C(C)(C)C)P1(=O)OC(C)(C)CN1C(C)(C)C (stereo not given)	> 100	> 100	> 100	> 100	> 100	> 100	82.3		> 100	> 100	> 100	> 100	> 100	> 100	> 100	> 100	> 100	> 100	> 100
